Measurements taken from patent publication US9034887B2, “Dihydroorotate dehydrogenase as antifungal drug target and quinazolinone-based inhibitors thereof” (F2G Limited, priority 2008, dated 2015).
Converted amounts (≈) assume the structure as drawn.

How the values were obtained:
[1] = molecular target: T1, Recombinant DHODH from human (Homo sapiens, UniProt Q02127); assay: DHODH inhibition screen (DCIP reduction, 600 nm), human enzyme; assay type: biochemical; settings: Table 3, read-out: IC50 values for Compound Examples 1 to 15 identified from screens, Human
T1 construct: His-tag; NusA (Nus-tag) fusion of vector pET43.1 (own knowledge of the vector) (N); made in house; host or cells: E. coli BL21 DE3
T1 sequence (Q02127 31-395 limits assumed): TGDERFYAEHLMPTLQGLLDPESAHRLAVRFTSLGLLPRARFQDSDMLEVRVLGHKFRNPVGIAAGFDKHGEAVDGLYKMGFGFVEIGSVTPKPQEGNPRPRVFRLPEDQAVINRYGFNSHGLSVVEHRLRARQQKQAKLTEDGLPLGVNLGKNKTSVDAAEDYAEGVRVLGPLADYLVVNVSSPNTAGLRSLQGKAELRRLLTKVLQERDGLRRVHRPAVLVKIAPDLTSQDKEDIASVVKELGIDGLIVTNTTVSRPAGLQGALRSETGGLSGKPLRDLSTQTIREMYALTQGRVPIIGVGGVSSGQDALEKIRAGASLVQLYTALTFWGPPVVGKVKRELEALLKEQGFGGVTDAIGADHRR
Experimental: (§1) 1. The following buffer and stock solution were prepared:
Coenzyme Q2 (Sigma) was dissolved in DMSO to give a concentration of 10 mg/ml. […] The stock solution was made with 127.36 μl DHO, 127.36 μl DCIP and 318.4 μl Coenzyme Q2, made up to 80 ml with Buffer A. Final concentrations in assay wells were; DHO, 500 μM; Coenzyme Q, 50 μM; DCIP, 100 μM.
2. […] Duplicate sets of plates were used such that one set received enzyme while a control set received no enzyme.
3. […] Then 20 μl of DHODH solution was added to all the +enzyme plates and 20 μl of Buffer A was added to all the control −enzyme plates.
(§2) 4. 20 μl of DHO/Coenzyme Q2/DCIP solution was added to all the wells, after which plates were incubated at room temperature for […] and then read on a Tecan Safire spectrophotometer at 600 nm.
(§3) Recombinant DHODH from human or C. albicans was assayed in the same way. It is necessary to adjust the enzyme concentration and reaction time to take into account variations in activity of enzyme batches, thus the incubation time was 20 minutes for the C. albicans enzyme and 34 minutes for the human enzyme.

[2] = molecular target: Recombinant A. fumigatus DHODH (Aspergillus fumigatus, UniProt Q4X169); assay: DHODH inhibition screen (DCIP reduction, 600 nm), A. fumigatus enzyme; assay type: biochemical
Chain of Recombinant A. fumigatus DHODH (Q4X169 entry or part of it): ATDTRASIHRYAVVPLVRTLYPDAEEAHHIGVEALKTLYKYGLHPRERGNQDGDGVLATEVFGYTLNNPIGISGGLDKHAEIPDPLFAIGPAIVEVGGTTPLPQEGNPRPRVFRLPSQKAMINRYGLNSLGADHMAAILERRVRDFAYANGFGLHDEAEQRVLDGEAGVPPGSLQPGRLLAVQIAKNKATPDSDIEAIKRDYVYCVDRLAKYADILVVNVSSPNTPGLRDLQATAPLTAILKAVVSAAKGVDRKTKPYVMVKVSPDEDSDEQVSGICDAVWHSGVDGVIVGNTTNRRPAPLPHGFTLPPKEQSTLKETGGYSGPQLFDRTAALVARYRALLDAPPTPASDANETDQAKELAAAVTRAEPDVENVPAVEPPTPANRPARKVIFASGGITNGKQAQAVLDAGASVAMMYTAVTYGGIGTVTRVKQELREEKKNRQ
Experimental: as §1
Buffer A: 62.5 mM TrisHCl (pH8.0), 150 mM NaCl, 10% v/v glycerol
DHO/Coenzyme Q2/DCIP solution: 19.848 mg dihydroorotate (DHO; Sigma) was dissolved in 160 μl DMSO. Coenzyme Q2 (Sigma) was dissolved in DMSO to give a concentration of 10 mg/ml. 7.236 mg 2,6-dichloroindophenol (DCIP; Sigma) was dissolved in 160 μl DMSO. The stock solution was made with 127.36 μl DHO, 127.36 μl DCIP and 318.4 μl Coenzyme Q2, made up to 80 ml with Buffer A. Final concentrations in assay wells were; DHO, 500 μM; Coenzyme Q, 50 μM; DCIP, 100 μM.
2. Compounds were aliquotted into 384-well microtitre plates at a range of dilutions to give final concentrations in the assay of […]. Duplicate sets of plates were used such that one set received enzyme while a control set received no enzyme. Since compounds are frequently dissolved in DMSO or a DMSO/water mixture, assays were set up to give a final concentration of 1% (v/v) DMSO in wells.
3. Recombinant A. fumigatus DHODH was suspended in Buffer A to give a concentration of 1435.8 ng protein in 20 μl. Then 20 μl of DHODH solution was added to all the +enzyme plates and 20 μl of Buffer A was added to all the control −enzyme plates.
as §2
as §3, with “enzyme. Compounds are screened against a fungal and human enzyme to identify compounds which are selective for the fungal enzyme.” for “enzyme.”

Aspergillus flavus [3] = assay: MIC in YAG medium, A. flavus; assay type: cell-based; settings: 24 hrs at 35° C., >70% growth inhibition, read-out: MIC grade, A. flavus
Experimental: (§4) Between 1 and 5 mgs of compound were accurately weighed out into a sterile Eppendorf tube. The compound was dissolved in DMSO to give a solution containing 5 mg/mL. Tubes were stored at −20° C. until required.
(§5) On the day of testing thawed solutions were vortex mixed to ensure homogeneity. 30 μL of solution was removed and added to 570 μL of sterile water in a separate sterile Eppendorf. The thoroughly mixed solution was used to prepare a series of doubling dilutions in water, in a deep well plate. Thirteen replicate plates were prepared using a Minitrak by aspirating 20 μL from each well into eleven clear polystyrene 96 well plates.
(§6) Spores of Aspergillus spp. (Aspergillus fumigatus [two strains], Aspergillus terreus [two strains], Aspergillus niger and Aspergillus flavus) were harvested from cultures grown on Sabarauds agar for 5 days, and resuspended in PBS/Tween 80 to approx 1×10^7 cfu/mL. Each organism suspension was diluted in YAG medium (1% glucose, 1% ammonium chloride and 0.5% yeast extract) to 0.5-2×10^4 cfu/mL. 80 μL of an organism suspension was added to each well of the plate containing drug dilutions.
(§7) All plates were incubated for 24 hrs at 35° C. Growth was assessed by monitoring the optical density at 485 nm for each well. The MIC of a compound is the lowest drug concentration that inhibits growth of an organism by >70% compared with a drug free control. MICs are recorded as mg/L. In cases where the MIC of an organism is […] the MIC is repeated using a concentration range of 0.5-0.0005 mg/L.

Aspergillus fumigatus = assay: MIC in YAG medium, A. fumigatus; assay type: cell-based; settings: 24 hrs at 35° C., >70% growth inhibition, read-out: MIC grade, A. fumigatus
Experimental: as §4, §5, §6, §7

A. fumigatus 210 = assay: MIC in YAG medium, A. fumigatus 210; assay type: cell-based; settings: Aspergillus fumigatus, 24 hrs at 35° C., >70% growth inhibition, read-out: MIC grade, A. fumigatus 210
Experimental: as §4, §5, §6, §7

Aspergillus niger [4] = assay: MIC in YAG medium, A. niger; assay type: cell-based; settings: 24 hrs at 35° C., >70% growth inhibition, read-out: MIC grade, A. niger
Experimental: as §4, §5, §6, §7

Aspergillus terreus = assay: MIC in YAG medium, A. terreus; assay type: cell-based; settings: 24 hrs at 35° C., >70% growth inhibition, read-out: MIC grade, A. terreus
Experimental: as §4, §5, §6, §7

A. terreus 49 = assay: MIC in YAG medium, A. terreus 49; assay type: cell-based; settings: Aspergillus terreus, 24 hrs at 35° C., >70% growth inhibition, read-out: MIC grade, A. terreus 49
Experimental: as §4, §5, §6, §7

Aspergillus flavus [5] = assay: MIC in RPMI medium, A. flavus; assay type: cell-based; settings: 24-48 hrs at 35° C., >80% growth inhibition, read-out: MIC grade, A. flavus
Experimental: as §4, §5
(§8) Assays were also performed in RPMI medium. To perform MIC tests in this medium, dilutions of compounds are prepared in microtitre plates as described above. Fungal strains to be tested are grown and harvested in an identical manner to that described above, and each organism suspension was diluted in RPMI medium, containing 2% glucose and 0.135 M MOPS buffer (pH 7.0) to 0.5-2×10^4 cfu/mL, rather than in YAG medium. 80 μL of an organism suspension was added to each well of the plate containing drug dilutions.
(§9) All plates were incubated for 24-48 hrs at 35° C. Growth was assessed by monitoring the optical density at 485 nm for each well. […] The following organisms were tested: Aspergillus flavus, Aspergillus fumigatus AF293 and AF210, Aspergillus niger and Aspergillus terreus AT4 and AT49.

[6] = tested on: Aspergillus fumigatus AF293; assay: MIC in RPMI medium, A. fumigatus; assay type: cell-based; settings: 24-48 hrs at 35° C., >80% growth inhibition, read-out: MIC grade, A. fumigatus
Experimental: as §4, §5, §8, §9

[7] = tested on: Aspergillus fumigatus AF210; assay: MIC in RPMI medium, A. fumigatus 210; assay type: cell-based; settings: 24-48 hrs at 35° C., >80% growth inhibition, read-out: MIC grade, A. fumigatus 210
Experimental: as §4, §5, §8, §9

Aspergillus niger [8] = assay: MIC in RPMI medium, A. niger; assay type: cell-based; settings: 24-48 hrs at 35° C., >80% growth inhibition, read-out: MIC grade, A. niger
Experimental: as §4, §5, §8, §9

Aspergillus terreus AT4 = assay: MIC in RPMI medium, A. terreus; assay type: cell-based; settings: 24-48 hrs at 35° C., >80% growth inhibition, read-out: MIC grade, A. terreus
Experimental: as §4, §5, §8, §9

Aspergillus terreus AT49 = assay: MIC in RPMI medium, A. terreus 49; assay type: cell-based; settings: 24-48 hrs at 35° C., >80% growth inhibition, read-out: MIC grade, A. terreus 49
Experimental: as §4, §5, §8, §9

SMILES | IC50 [1] [µM] | IC50 [2] [µM] | MIC (Aspergillus flavus [3]) [µg/mL] | MIC (Aspergillus fumigatus) [µg/mL] | MIC (A. fumigatus 210) [µg/mL] | MIC (Aspergillus niger [4]) [µg/mL] | MIC (Aspergillus terreus) [µg/mL] | MIC (A. terreus 49) [µg/mL] | MIC (Aspergillus flavus [5]) [µg/mL] | MIC [6] [µg/mL] | MIC [7] [µg/mL] | MIC (Aspergillus niger [8]) [µg/mL] | MIC (Aspergillus terreus AT4) [µg/mL] | MIC (Aspergillus terreus AT49) [µg/mL]
CC(C)Sc1nc2ccccc2c(=O)n1-c1ccccc1C(C)C [Compound Example 8, 3-(2-Isopropyl-phenyl)-2-isopropylsulfanyl-3H-quinazolin-4-one] | 131 | 12.2 | > 10 | < 1 | < 1 | < 1 | < 1 | < 1 | > 10 | < 1 | 1 to 10 (≈ 2.95 to 29.5 µM) | < 1 | > 10 | 1 to 10 (≈ 2.95 to 29.5 µM)
COc1ccccc1-n1c(SC(C)C)nc2ccccc2c1=O [Compound Example 7, 2-Isopropylsulfanyl-3-(2-methoxy-phenyl)-3H-quinazolin-4-one] | 50.1 | 11.6 | > 10 | < 1 | < 1 | < 1 | < 1 | 1 to 10 (≈ 3.06 to 30.6 µM) | > 10 | 1 to 10 (≈ 3.06 to 30.6 µM) | 1 to 10 (≈ 3.06 to 30.6 µM) | < 1 | 1 to 10 (≈ 3.06 to 30.6 µM) | 1 to 10 (≈ 3.06 to 30.6 µM)
COc1ccccc1-n1c(SC(C)C)nc2cccc(C)c2c1=O [Compound Example 3, 2-Isopropylsulfanyl-3-(2-methoxy-phenyl)-5-methyl-3H-quinazolin-4-one] |  |  | > 10 | < 1 | < 1 | < 1 | < 1 | < 1 | > 10 | 1 to 10 (≈ 2.94 to 29.4 µM) | 1 to 10 (≈ 2.94 to 29.4 µM) | < 1 | > 10 | 1 to 10 (≈ 2.94 to 29.4 µM)
CCc1ccccc1-n1c(SC(C)C)nc2ccccc2c1=O [Compound Example 9, 3-(2-Ethyl-phenyl)-2-isopropylsulfanyl-3H-quinazolin-4-one] | 123 | 17.7 | > 10 | < 1 | < 1 | < 1 | 1 to 10 (≈ 3.08 to 30.8 µM) | < 1 | > 10 | < 1 | > 10 | < 1 | > 10 | > 10
COc1ccccc1-n1c(SC(C)C)nc2cc(C)ccc2c1=O [Compound Example 1, 2-Isopropylsulfanyl-3-(2-methoxy-phenyl)-7-methyl-3H-quinazolin-4-one] |  |  | < 1 | < 1 | < 1 | < 1 | < 1 | < 1 | > 10 | 1 to 10 (≈ 2.94 to 29.4 µM) | 1 to 10 (≈ 2.94 to 29.4 µM) | > 10 | < 1 | < 1
